This passage reports EC50 and inhibition results from patent US20240166624A1, “PPARG INVERSE AGONISTS AND USES THEREOF” (Flare Therapeutics Inc., priority 2021, published 2024).

For assay [1], the target named is T1, PPARG/RXRA LBD heterodimer (Homo sapiens, UniProt P37231).
T1 construct: His-TEV-Q203-Y477; Uniprot ID P37231-2; made in house; host or cells: E. coli
T1 sequence (P37231 203-477 isoform P37231-2): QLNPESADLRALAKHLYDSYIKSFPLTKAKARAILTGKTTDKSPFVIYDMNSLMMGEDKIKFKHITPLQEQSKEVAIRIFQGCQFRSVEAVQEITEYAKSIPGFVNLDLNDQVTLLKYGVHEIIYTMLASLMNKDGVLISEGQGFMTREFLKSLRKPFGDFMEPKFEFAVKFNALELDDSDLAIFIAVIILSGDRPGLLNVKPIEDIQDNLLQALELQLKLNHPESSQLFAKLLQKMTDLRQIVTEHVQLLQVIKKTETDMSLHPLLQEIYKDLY
T1 sequence (P19793 228-462 partner limits assumed): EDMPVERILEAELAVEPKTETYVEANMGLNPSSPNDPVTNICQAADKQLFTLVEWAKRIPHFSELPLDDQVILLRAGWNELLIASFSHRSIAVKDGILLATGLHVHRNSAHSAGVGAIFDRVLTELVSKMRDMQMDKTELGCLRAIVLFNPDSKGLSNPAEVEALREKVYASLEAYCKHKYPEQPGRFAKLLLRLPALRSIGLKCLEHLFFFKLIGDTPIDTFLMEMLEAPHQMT
In words: PPARγ-MED1 blockade assay (TR-FRET, biotinylated MED1 LxxLL peptide). Type of assay: biochemical. As to conditions: WT PPARG LBD/WT RXRA LBD, 80 nM Rosiglitazone, 3 hours. A digest of the protocol: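 TR-FRET measuring biotinylated MED1 LxxLL peptide association with 2 nM each His-PPARG LBD (Q203-Y477) and Flag-RXRA LBD (E228-T462), E. coli expressed. Read after 3 h incubation; ratios normalized to DMSO (0%) and GW9662 minimum (100%) for IC50 and maximal MED1 repulsion.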

Assay [2] concerns ANGPTL4, a PPARG target gene, in HT1197 (RXRA S427F mutation) cells. In words: Bladder cancer pharmacodynamic assay, HT1197 cell assay (qPCR of ANGPTL4). Type of assay: cell-based. Conditions: Homo sapiens, 24 hours, 100 nM compound, relative to DMSO control. A digest of the protocol: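 5637 (PPARG amplified) and HT1197 (RXRA S427F) cells treated 24 h with PPARG inverse agonists. FABP4 and ANGPTL4 expression measured by qPCR, normalised to TBP, and reported relative to DMSO control by ΔΔCt.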
In general terms: In qPCR the cycle at which signal appears reflects the starting amount.

Assay [3] has as its target T2, PPARG/RXRA LBD heterodimer (Homo sapiens, UniProt P37231).
T2 construct: His-TEV-Q203-Y477; Uniprot ID P37231-2; made in house; host or cells: E. coli
Nature of the assay: PPARγ-NCOR1 recruitment assay (TR-FRET, biotinylated NCOR1 ID2 peptide). Type of assay: biochemical. Conditions: 80 nM Rosiglitazone, 3 hours, read-out: PPARG-NCOR recruitment assay EC50. A digest of the protocol:
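2 nM each of E. coli-expressed PPARG LBD (Q203-Y477) and RXRA LBD (WT or S427F, E228-T462) with biotinylated NCOR1 ID2 peptide, incubated 3 h; TR-FRET read at Ex/Em 615/665. Ratios normalized to DMSO (0%) and T0070907 maximum (100%) for EC50 and maximal recruitment.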
T2 sequence (O75376 2251-2273 partner, one chain of several): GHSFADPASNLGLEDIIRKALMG
A general note: TR-FRET usually uses a lanthanide donor and a delayed reading to cut background.

The EC50 is the concentration at which the effect is half-maximal. In general, inhibition refers to how much of the control response was suppressed. A higher inhibition goes with strong suppression. Regarding `N#Cc1ccc(Cl)c(-c2cc(=O)c3c(F)c(-n4ccnc4)c(F)cc3[nH]2)c1` [Example 29, 4-chloro-3-(5,7-difluoro-6-(1H-imidazol-1-yl)-4-oxo-1,4-dihydroquinolin-2-yl)benzonitrile], the 50% effective concentration (EC50) in assay [1] and in assay [3] was 1000 to 10000 nM throughout. The compound also showed an inhibition at 0.1 µM in assay [2] of 38%.

In the case of `N#Cc1ccc(Cl)c(-c2cc(=O)c3c(F)c(-c4ccc(C(F)F)nc4)c(F)cc3[nH]2)c1` [Example 73, 4-chloro-3-(6-(6-(difluoromethyl)pyridin-3-yl)-5,7-difluoro-4-oxo-1,4-dihydroquinolin-2-yl)benzonitrile], the concentration giving a half-maximal response (EC50) in assay [1] and in assay [3] was 10 to 100 nM in each case. The compound further returned an inhibition at 0.1 µM in assay [2] of 85%.

Consider `COC1CN(c2c(F)cc3[nH]c(-c4cc(C#N)ccc4Cl)cc(=O)c3c2F)C1` [Example 103, 4-chloro-3-(5,7-difluoro-6-(3-methoxyazetidin-1-yl)-4-oxo-1,4-dihydroquinolin-2-yl)benzonitrile], for which the EC50 in assay [1] and in assay [3] was 1000 to 10000 nM each time. This compound also displayed an inhibition at 0.1 µM in assay [2] of 82%.

For the compound `N#Cc1ccc(Cl)c(-c2cc(=O)c3c(F)cc(Cl)cc3[nH]2)c1` [Example 16, 4-chloro-3-(7-chloro-5-fluoro-4-oxo-1,4-dihydroquinolin-2-yl)benzonitrile], the EC50 in assay [1] and in assay [3] was 100 to 1000 nM in each case. Besides, the inhibition at 0.1 µM in assay [2] is 88%.

For `N#Cc1ccc(Cl)c(-c2cc(=O)c3c(F)c(-n4cccn4)c(F)cc3[nH]2)c1` [Example 25, 4-chloro-3-(5,7-difluoro-4-oxo-6-(1H-pyrazol-1-yl)-1,4-dihydroquinolin-2-yl)benzonitrile], the EC50 in assay [1] and in assay [3] was 1000 to 10000 nM throughout. In assay [2], this compound had an inhibition at 0.1 µM of 22%.

Turning to `COc1cc(F)c2c(=O)cc(-c3cc(C#N)ccc3Cl)[nH]c2c1` [Example 22, 4-chloro-3-(5-fluoro-7-methoxy-4-oxo-1,4-dihydroquinolin-2-yl)benzonitrile], the EC50 in assay [1] and in assay [3] was 100 to 1000 nM each time. For the same compound, in assay [2], 0.1 µM produced 29% inhibition.

With `N#Cc1ccc(Cl)c(-c2cc(=O)c3c(F)c(-c4cc[nH]c(=O)c4)c(F)cc3[nH]2)c1` [Example 54, 4-chloro-3-(5,7-difluoro-4-oxo-6-(2-oxo-1,2-dihydropyridin-4-yl)-1,4-dihydroquinolin-2-yl)benzonitrile], the EC50 in assay [1] and in assay [3] was 100 to 1000 nM each time. The same compound registered an inhibition at 0.1 µM in assay [2] of 20%.

Regarding `N#Cc1ccc(Cl)c(-c2cc(=O)c3c(F)c(-c4ccncc4F)c(F)cc3[nH]2)c1` [Example 49, 4-chloro-3-(5,7-difluoro-6-(3-fluoropyridin-4-yl)-4-oxo-1,4-dihydroquinolin-2-yl)benzonitrile], the EC50 in assay [1] and in assay [3] was 100 to 1000 nM in each case. For the same compound, in assay [2], the inhibition at 0.1 µM was 52%.

Take `CN(C)C(=O)c1cc(-c2c(F)cc3[nH]c(-c4cc(C#N)ccc4Cl)cc(=O)c3c2F)ccn1` [Example 88, 4-(2-(2-chloro-5-cyanophenyl)-5,7-difluoro-4-oxo-1,4-dihydroquinolin-6-yl)-N,N-dimethylpicolinamide]: the results for the EC50 in assay [1] and in assay [3] were over 10000 nM and 1000 to 10000 nM, respectively. The compound further gave an inhibition at 0.1 µM in assay [2] of 41%.

With `CC(C)(CO)n1cc(-c2c(F)cc3[nH]c(-c4cc(C#N)ccc4Cl)cc(=O)c3c2F)cn1` [Example 69, 4-chloro-3-(5,7-difluoro-6-(1-(1-hydroxy-2-methylpropan-2-yl)-1H-pyrazol-4-yl)-4-oxo-1,4-dihydroquinolin-2-yl)benzonitrile], the EC50 in assay [1] and in assay [3] was 100 to 1000 nM throughout. The same compound returned an inhibition at 0.1 µM in assay [2] of 68%.

In the case of `Cc1nc(-c2c(F)cc3[nH]c(-c4cc(C#N)ccc4Cl)cc(=O)c3c2F)c[nH]1` [Example 65, 4-chloro-3-(5,7-difluoro-6-(2-methyl-1H-imidazol-4-yl)-4-oxo-1,4-dihydroquinolin-2-yl)benzonitrile], the EC50 in assay [1] and in assay [3] was 100 to 1000 nM in each case. In assay [2], this compound displayed an inhibition at 0.1 µM of 44%.

For `COc1c(F)cc2[nH]c(-c3cc(C#N)ccc3Cl)cc(=O)c2c1F` [Example 34, 4-chloro-3-(5,7-difluoro-6-methoxy-4-oxo-1,4-dihydroquinolin-2-yl)benzonitrile], the EC50 in assay [1] and in assay [3] was 100 to 1000 nM in each case. The same compound gave an inhibition at 0.1 µM in assay [2] of 79%.

Turning to `N#Cc1ccc(Cl)c(-c2cc(=O)c3c(F)c(-c4ccnc(C(F)(F)F)c4)c(F)cc3[nH]2)c1` [Example 53, 4-chloro-3-(5,7-difluoro-4-oxo-6-(2-(trifluoromethyl)pyridin-4-yl)-1,4-dihydroquinolin-2-yl)benzonitrile], the EC50 in assay [1] and in assay [3] was 100 to 1000 nM each time. Also, in assay [2], at 0.1 µM the inhibition was 36%.

On to `N#Cc1ccc(Cl)c(-c2cc(=O)c3c(F)c(N4CC5(COC5)C4)c(F)cc3[nH]2)c1` [Example 98, 4-chloro-3-(5,7-difluoro-4-oxo-6-(2-oxa-6-azaspiro[3.3]heptan-6-yl)-14-dihydroquinolin-2-yl)benzonitrile], for which the results for the EC50 in assay [1] and in assay [3] were 1000 to 10000 nM and 100 to 1000 nM, respectively. The compound also returned an inhibition at 0.1 µM in assay [2] of 87%.

Consider `COCCn1ccc(-c2c(F)cc3[nH]c(-c4cc(C#N)ccc4Cl)cc(=O)c3c2F)n1` [Example 72, 4-chloro-3-(5,7-difluoro-6-(1-(2-methoxyethyl)-1H-pyrazol-3-yl)-4-oxo-1,4-dihydroquinolin-2-yl)benzonitrile], for which the EC50 in assay [1] and in assay [3] was 100 to 1000 nM in each case. In assay [2], this compound displayed an inhibition at 0.1 µM of 79%.

Take `Cn1ncc(-c2c(F)cc3[nH]c(-c4cc(C#N)ccc4Cl)cc(=O)c3c2F)cc1=O` [Example 63, 4-chloro-3-(5,7-difluoro-6-(1-methyl-6-oxo-1,6-dihydropyridazin-4-yl)-4-oxo-1,4-dihydroquinolin-2-yl)benzonitrile]: the EC50 in assay [1] and in assay [3] was 100 to 1000 nM each time. Further, the inhibition at 0.1 µM in assay [2] worked out at 24%.

Regarding `N#Cc1ccc(Cl)c(-c2cc(=O)c3c(F)c(-c4ccc(CO)nc4)c(F)cc3[nH]2)c1` [Example 64, 4-chloro-3-(5,7-difluoro-6-(6-(hydroxymethyl)pyridin-3-yl)-4-oxo-1,4-dihydroquinolin-2-yl)benzonitrile], the concentration giving a half-maximal response (EC50) in assay [1] and in assay [3] was 100 to 1000 nM throughout. In assay [2], this compound gave an inhibition at 0.1 µM of 59%.

Turning to `CN1CCN(c2c(F)cc3[nH]c(-c4cc(C#N)ccc4Cl)cc(=O)c3c2F)CC1=O` [Example 111, 4-chloro-3-(5,7-difluoro-6-(4-methyl-3-oxopiperazin-1-yl)-4-oxo-1,4-dihydroquinolin-2-yl)benzonitrile], the EC50 in assay [1] and in assay [3] was 1000 to 10000 nM throughout. The same compound had an inhibition at 0.1 µM in assay [2] of 43%.

For the compound `CS(=O)(=O)c1ccc(-c2c(F)cc3[nH]c(-c4cc(C#N)ccc4Cl)cc(=O)c3c2F)cc1` [Example 39, 4-chloro-3-(5,7-difluoro-6-(4-(methylsulfonyl)phenyl)-4-oxo-1,4-dihydroquinolin-2-yl)benzonitrile], the EC50 in assay [1] and in assay [3] was 100 to 1000 nM in each case. This compound also registered an inhibition at 0.1 µM in assay [2] of 33%.

For `CNC(=O)c1cccc(-c2c(F)cc3[nH]c(-c4cc(C#N)ccc4Cl)cc(=O)c3c2F)c1` [Example 78, 3-(2-(2-chloro-5-cyanophenyl)-5,7-difluoro-4-oxo-1,4-dihydroquinolin-6-yl)-N-methylbenzamide], the EC50 in assay [1] and in assay [3] was 100 to 1000 nM in each case. The compound also yielded an inhibition at 0.1 µM in assay [2] of 36%.

On to `CN(C)C(=O)c1cc(-c2c(F)cc3[nH]c(-c4cc(C#N)ccc4Cl)cc(=O)c3c2F)ccc1C(F)(F)F` [Example 89, 5-(2-(2-chloro-5-cyanophenyl)-5,7-difluoro-4-oxo-1,4-dihydroquinolin-6-yl)-N,N-dimethyl-2-(trifluoromethyl)benzamide], for which the EC50 in assay [1] and in assay [3] was 100 to 1000 nM throughout. The inhibition at 0.1 µM in assay [2] was 56%.

Take `CN(C)C(=O)c1cccc(-c2c(F)cc3[nH]c(-c4cc(C#N)ccc4Cl)cc(=O)c3c2F)n1` [Example 85, 6-(2-(2-chloro-5-cyanophenyl)-5,7-difluoro-4-oxo-1,4-dihydroquinolin-6-yl)-N,N-dimethylpicolinamide]: the EC50 in assay [1] and in assay [3] was 1000 to 10000 nM throughout. The compound also returned an inhibition at 0.1 µM in assay [2] of 59%.
